{
  "source": "patent US9181197B2",
  "about": "(priority 2008, dated 2015)",
  "key": {"[1]": {"system": "rats", "settings": "rat, in vivo, iv"}, "[2]": {"system": "rats", "assay": "loss of righting reflex (LORR) in rats after IV bolus", "assay_type": "in vivo", "settings": "for ED50: Rattus norvegicus; for ED50 / slope of duration of LORR versus logarithm of anesthetic dose: rats, IV bolus; for anesthetic toxicity in rats: highest doses", "protocol": "Rats were briefly restrained in a 3 inch diameter, 9 inch long acrylic chamber with a tail exit port. The desired dose of anesthetic was injected through a lateral tail vein catheter followed by an approximately 1 ml normal saline flush. Immediately after injection, rats were removed from the restraint device and turned supine. […] A stop-watch was used to measure the duration of LORR, which was defined as the time from drug injection until the animal spontaneously righted itself. The ED50 for LORR upon bolus anesthetic administration was determined from the anesthetic dose-dependence of LORR."}, "[3]": {"system": "rats", "assay": "heart rate and blood pressure in rats at equianesthetic doses", "settings": "for increase in heart rate shortly after injection / duration of significant effect on mean blood pressure / maximum decrease in mean blood pressure relative to baseline: IV, twice ED50 for LORR; for maximum decrease in mean blood pressure relative to baseline: n=3"}, "[4]": {"system": "Xenopus laevis tadpoles", "settings": "Husain et al. 2003, read-out: EC50 / free-aqueous concentration inducing loss of righting reflexes in tadpoles; cited from earlier work"}, "[5]": {"system": "rats", "assay": "ACTH1-24-stimulated serum corticosterone in rats (adrenocortical function)", "settings": "30 min after equianesthetic dose"}, "[6]": {"system": "humans", "settings": "Arden et al. 1986; cited from earlier work"}, "[7]": {"target": "T1, Human GABAA receptors composed of α1β2γ2L subunits (Homo sapiens, UniProt P14867+P47870)", "T1 construct": "expressed in transfected cells; host or cells: Xenopus laevis oocytes", "T1 sequence (P14867 28-456)": "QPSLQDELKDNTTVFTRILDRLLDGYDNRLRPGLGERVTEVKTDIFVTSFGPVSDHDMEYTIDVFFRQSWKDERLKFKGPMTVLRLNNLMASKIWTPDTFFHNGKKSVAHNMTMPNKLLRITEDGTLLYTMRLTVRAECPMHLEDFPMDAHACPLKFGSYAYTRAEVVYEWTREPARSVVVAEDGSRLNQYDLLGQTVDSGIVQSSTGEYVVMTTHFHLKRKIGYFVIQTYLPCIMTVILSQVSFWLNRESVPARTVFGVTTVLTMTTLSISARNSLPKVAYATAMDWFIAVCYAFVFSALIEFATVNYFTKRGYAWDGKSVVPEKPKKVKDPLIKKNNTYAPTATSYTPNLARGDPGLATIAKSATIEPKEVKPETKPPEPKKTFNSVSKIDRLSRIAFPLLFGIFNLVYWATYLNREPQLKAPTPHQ", "T1 sequence (P47870 25-512 limits assumed)": "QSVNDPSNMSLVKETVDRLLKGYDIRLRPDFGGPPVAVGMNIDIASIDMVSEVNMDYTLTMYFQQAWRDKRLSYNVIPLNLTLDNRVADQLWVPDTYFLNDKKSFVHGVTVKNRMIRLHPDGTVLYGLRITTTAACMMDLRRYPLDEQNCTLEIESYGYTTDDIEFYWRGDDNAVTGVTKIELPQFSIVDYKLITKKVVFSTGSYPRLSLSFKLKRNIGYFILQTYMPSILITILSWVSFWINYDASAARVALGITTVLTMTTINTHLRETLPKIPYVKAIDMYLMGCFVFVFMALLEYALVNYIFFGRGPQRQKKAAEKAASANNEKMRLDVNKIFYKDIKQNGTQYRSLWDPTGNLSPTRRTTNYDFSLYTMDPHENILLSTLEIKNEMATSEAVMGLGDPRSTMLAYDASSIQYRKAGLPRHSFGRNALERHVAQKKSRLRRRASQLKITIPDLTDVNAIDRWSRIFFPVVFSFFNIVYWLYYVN", "T1 sequence (P18507 40-475 partner)": "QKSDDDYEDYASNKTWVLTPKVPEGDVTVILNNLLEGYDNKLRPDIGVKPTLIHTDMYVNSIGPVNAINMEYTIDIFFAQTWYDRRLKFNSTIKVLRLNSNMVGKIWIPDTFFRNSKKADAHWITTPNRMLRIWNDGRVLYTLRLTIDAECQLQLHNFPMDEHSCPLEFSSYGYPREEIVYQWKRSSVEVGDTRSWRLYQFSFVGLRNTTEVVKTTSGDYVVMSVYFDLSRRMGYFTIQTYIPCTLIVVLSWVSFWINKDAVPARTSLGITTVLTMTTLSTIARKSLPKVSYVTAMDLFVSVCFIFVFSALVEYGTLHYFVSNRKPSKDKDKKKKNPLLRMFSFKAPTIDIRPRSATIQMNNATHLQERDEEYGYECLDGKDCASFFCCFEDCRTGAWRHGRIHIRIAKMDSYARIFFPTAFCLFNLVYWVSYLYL", "assay": "two-microelectrode voltage clamp of GABAA receptor currents in Xenopus oocytes", "assay_type": "cell-based", "settings": "for enhancement of amplitudes of GABA-evoked currents: EC5-10 GABA, each anesthetic at its anesthetic EC50 (8 μM MOC-(R)-etomidate, 2 μM (R)-etomidate), n=6 oocytes; for direct activation of GABAA receptors: before application of GABA"}, "[8]": {"system": "patients", "settings": "cited from earlier work"}, "[9]": {"assay": "in-vitro metabolism in pooled human S9 liver fraction", "settings": "for half-life at 10 μM: human, s9; for rate of metabolism relative to (R)-etomidate: liver enzymes, S9"}, "[10]": {"system": "Xenopus laevis tadpoles", "assay": "tadpole loss of righting reflex assay"}, "[11]": {"system": "animals", "settings": "LD50/ED50; cited from earlier work"}},
  "note": "Several values for one entry are separate records, joined by “and”; a condition that tells them apart may be missing. Equal values may be shown once. Entries after “also recorded” stand apart in the source; their conditions may differ. Read-outs that look alike come from different tables or passages of the source.",
  "data": [
    {"smiles": "CCOC(=O)c1cncn1[C@H](C)c1ccccc1", "note": "(stereo in doubt) [(R)-etomidate, ethyl 3-(1-phenylethyl)imidazole-4-carboxylate]", "values": [
      {"measurement": "duration of significant effect on mean blood pressure", "setting": "[1]", "result": 6.5, "unit": "min"},
      {"measurement": "maximum decrease in mean blood pressure relative to baseline", "setting": "[1]", "result": "−36±11", "unit": "mmHg"},
      {"measurement": "ED50", "setting": "[2]", "result": "1 ± 0.03", "unit": "mg/kg"},
      {"measurement": "anesthetic toxicity in rats", "setting": "[2]", "result": "no obvious anesthetic toxicity"},
      {"measurement": "slope of duration of LORR versus logarithm of anesthetic dose", "setting": "[2]", "result": "27±7"},
      {"measurement": "increase in heart rate shortly after injection", "setting": "[3]", "result": "49±67", "unit": "BPM"}
    ]},
    {"smiles": "CCOC(=O)c1cncn1[C@H](C)c1ccccc1", "note": "[(R)-etomidate, ethyl 3-(1-phenylethyl)imidazole-4-carboxylate]", "values": [
      {"measurement": "EC50", "setting": "[4]", "result": "~2 µM and 2 µM"},
      {"measurement": "ACTH1-24-stimulated corticosterone concentration versus vehicle", "setting": "[5]", "result": "significantly lower; also recorded: significantly reduced"},
      {"measurement": "free-aqueous concentration inducing loss of responsiveness", "setting": "[6]", "result": "~2", "unit": "µM"},
      {"measurement": "enhancement of amplitudes of GABA-evoked currents", "setting": "[7]", "result": "660±240", "unit": "%"},
      {"measurement": "direct activation of GABAA receptors", "setting": "[7]", "result": "evoked small currents"},
      {"measurement": "duration of adrenal suppression after single bolus induction dose", "setting": "[8]; critically ill patients", "result": "≥ 24", "unit": "h"},
      {"measurement": "persistence of adrenal insufficiency after discontinuing prolonged infusion", "setting": "[8]; doses producing general anesthesia", "result": "more than 4 days"}
    ]},
    {"smiles": "COC(=O)CCOC(=O)c1cncn1[C@H](C)c1ccccc1", "note": "[MOC-(R)-etomidate, (R)-3-Methoxy-3-oxopropyl1-(1-phenylethyl)-1H-imidazole-5-carboxylate]", "values": [
      {"measurement": "percent of original concentration remaining", "setting": "[9]; by 40 min", "result": "< 1", "unit": "%"},
      {"measurement": "percent metabolized", "setting": "[9]; by 40 min, +NADPH, 37° C.", "result": "more than 99%"},
      {"measurement": "concentration remaining", "setting": "[9]; by 40 min, start 10 μM", "result": "< 0.1", "unit": "µM"},
      {"measurement": "half-life at 10 μM", "setting": "[9]", "result": 4.2, "unit": "min"},
      {"measurement": "rate of metabolism relative to (R)-etomidate", "setting": "[9]", "result": "at least 100 fold"},
      {"measurement": "rate of metabolism relative to (R)-etomidate", "setting": "[9]; listed as MOC-(R)-Etomidate", "result": "> 100", "unit": "fold"},
      {"measurement": "ED50", "setting": "[2]", "result": "5.2 ± 1", "unit": "mg/kg"},
      {"measurement": "duration of LORR shorter versus propofol or (R)-etomidate", "setting": "[2]; equianesthetic doses", "result": "~10", "unit": "fold"},
      {"measurement": "anesthetic toxicity in rats", "setting": "[2]", "result": "no obvious anesthetic toxicity"},
      {"measurement": "slope of duration of LORR versus logarithm of anesthetic dose", "setting": "[2]", "result": "2.8±0.4"},
      {"measurement": "anesthetic potency relative to (R)-etomidate's potency", "setting": "[2]; two species (tadpoles, rats)", "result": "¼^th-⅕^th"},
      {"measurement": "ACTH1-24-stimulated corticosterone concentration versus vehicle", "setting": "[5]", "result": "not different from those that had received only vehicle; also recorded: no reduction; also recorded: unchanged versus control"},
      {"measurement": "enhancement of amplitudes of GABA-evoked currents", "setting": "[7]", "result": "450±130", "unit": "%"},
      {"measurement": "direct activation of GABAA receptors", "setting": "[7]", "result": "evoked small currents"},
      {"measurement": "duration of significant effect on mean blood pressure", "setting": "[3]", "result": 30, "unit": "s"},
      {"measurement": "increase in heart rate shortly after injection", "setting": "[3]", "result": "24±33", "unit": "BPM"},
      {"measurement": "maximum decrease in mean blood pressure relative to baseline", "setting": "[3]", "result": "−11±15", "unit": "mmHg"},
      {"measurement": "duration of reduction in blood pressure", "setting": "[3]; summary", "result": 30, "unit": "s"},
      {"measurement": "toxicity in tadpoles", "setting": "[10]; 0.1-128 μM, recovery in fresh oxygenated water", "result": "No evidence of toxicity was observed"},
      {"measurement": "EC50", "setting": "[10]; Xenopus laevis, read-out: anesthetic EC50 (loss of righting reflexes)", "result": "8 ± 2", "unit": "µM"},
      {"measurement": "fraction of tadpoles anesthetized", "setting": "[10]; highest concentrations, 48-128 μM", "result": "all tadpoles were anesthetized"}
    ]},
    {"smiles": "O=C1CC2(CCCC2)CC(=O)N1CCCCN1CCN(c2ncccn2)CC1", "note": "[buspirone]", "values": [
      {"measurement": "half-life at 10 μM", "setting": "[9]", "result": 15.4, "unit": "min"}
    ]},
    {"smiles": "CC(C)c1cccc(C(C)C)c1O", "note": "[propofol]", "values": [
      {"measurement": "therapeutic index", "setting": "[11]", "result": 3.1},
      {"measurement": "ED50", "setting": "[2]", "result": "4.1 ± 0.3", "unit": "mg/kg"},
      {"measurement": "anesthetic toxicity in rats", "setting": "[2]", "result": "no obvious anesthetic toxicity"},
      {"measurement": "slope of duration of LORR versus logarithm of anesthetic dose", "setting": "[2]", "result": "22±4"},
      {"measurement": "duration of significant effect on mean blood pressure", "setting": "[3]", "result": 420, "unit": "s"},
      {"measurement": "increase in heart rate shortly after injection", "setting": "[3]", "result": "64±56", "unit": "BPM"},
      {"measurement": "maximum decrease in mean blood pressure relative to baseline", "setting": "[3]", "result": "−51±19", "unit": "mmHg"}
    ]},
    {"smiles": "CCCC(C)C1(CC)C(=O)NC(=S)NC1=O", "note": "(stereo not shown) [thiopental]", "values": [
      {"measurement": "therapeutic index", "setting": "[11]", "result": 4.6}
    ]}
  ]
}
